Experimental data from US20180282819A1, “Targeting the Histone Pathway to Detect and Overcome Anthracyclin Resistance” (ONTARIO INSTITUTE FOR CANCER RESEARCH (OICR), priority 2015, published 2018).

Experiments:
Assay type in all cases: cell-based, human
[1] = test system: ZR75 Nat (native ZR-75-1 cells); experiment: HDAC inhibitor cytotoxicity, CellTiter-Glo viability
Description: (§1) All inhibitors were provided by the Drug Discovery group at the Ontario Institute for Cancer Research (OICR, Toronto, Canada). Cells were seeded at 1000-1500 cells/well into 384-well plates (Greiner, Mississauga, Canada). […] After 72 h, the effects of inhibitors were determined using CellTiter-Glo Luminescent Cell Viability Assay (Promega, Madison, USA) and the Wallac EnVision 2104 Multilabel Reader (Perkin-Elmer, Woodbridge, Canada). Raw data were normalized to negative (media) and positive (20 μM staurosporine) controls and analyzed in GraphPad Prism5.

[2] = test system: SKBR3 EpiR (epirubicin-resistant SKBR3 cells); experiment: as above; conditions: for IC50: 72 h, CellTiter-Glo, in the presence of selection dose of epirubicin (15 nM)
Description: as §1

[3] = test system: 231 EpiR (epirubicin-resistant MDA-MB-231 cells); experiment: as above; conditions: for IC50: 72 h, CellTiter-Glo, in the presence of selection dose of epirubicin (25 nM)
Description: as §1

[4] = test system: MCF7 Nat (native MCF7 cells); experiment: as above
Description: as §1

[5] = test system: SKBR3 Nat (native SKBR3 cells); experiment: as above
Description: as §1

[6] = test system: 231 Nat (native MDA-MB-231 cells); experiment: as above
Description: as §1

[7] = test system: ZR75 EpiR (epirubicin-resistant ZR-75-1 cells); experiment: as above; conditions: 72 h, in the presence of selection dose of epirubicin (10 nM)
Description: as §1

[8] = test system: MCF7 EpiR (epirubicin-resistant MCF7 cells); experiment: as above; conditions: for IC50: 72 h, CellTiter-Glo, in the presence of selection dose of epirubicin (30 nM)
Description: as §1

[9] = test system: MDA-MB-231 epirubicin-resistant cells; experiment: Cross resistance, CCK-8 viability; conditions: MDA-MB-231, 72 h
Description: (§2) Native and resistant cells were exposed to drug concentrations ranging from 0.3 nM to 3000 nM. Cell viability was determined 72 h later by CCK-8 assay. A) Percent of live cells relative to DMSO control was plotted against epirubicin concentration. Black=native cells, magenta=resistant cells. B) IC50 values in nM concentration±standard deviation. Resistance factor is shown in parenthesis and represents resistant IC50/native IC50.
(§3) Breast cancer cell lines (MDA-MB-231, MCF7, ZR-75-1, SKBR3) were purchased from ATCC and cultured in DMEM (except SKBR3, cultured in RPMI) supplemented with 10% heat-inactivated fetal bovine serum and 1% L-glutamine (Gibco, Burlington, Canada). Epirubicin-resistant cell lines were generated by exposing native cells to increasing concentrations of epirubicin with an initial concentration set at 0.5 nM. Resistance was defined when IC50 value superseded the IC50 value of the corresponding native cell line, and resistant cells could not tolerate further increase in drug concentration. Drug resistance and cross resistance were determined by exposing cells to drug concentrations ranging from 0.3-3000 nM for 72 h. Cell viability was determined by Cell Counting Kit-8 (CCK-8, Dojindo, Cedarlane, Burlington, Canada). IC50 were calculated in GraphPad Prism5.

[10] = test system: MCF7 epirubicin-resistant cells; experiment: Cross resistance, CCK-8 viability; conditions: MCF7, 72 h
Description: as §2, §3

[11] = test system: SKBR3 epirubicin-resistant cells; experiment: Cross resistance, CCK-8 viability; conditions: SKBR3, 72 h
Description: as §2, §3

[12] = test system: ZR-75-1 epirubicin-resistant cells; experiment: Cross resistance, CCK-8 viability; conditions: ZR-75-1, 72 h
Description: as §2, §3

[13] = test system: all four epirubicin-resistant cell lines (MDA-MB-231, MCF7, SKBR3, ZR-75-1); experiment: Drug resistance and cross resistance, CCK-8 viability; conditions: 72 h
Description: as §2, §3

Row | Molecule | IC50 ([1]; 72 h) | IC50 [2] | IC50 [3] | IC50 ([4]; 72 h) | IC50 ([5]; 72 h) | IC50 ([6]; 72 h) | IC50 [7] | IC50 [8] | IC50 ([1]; Homo sapiens, ZR75, 72 h) | IC50 ([4]; Homo sapiens, MCF7, 72 h) | IC50 ([5]; Homo sapiens, SK-BR-3, 72 h) | IC50 ([6]; Homo sapiens, MDA-MB-231, 72 h) | cytotoxicity for epirubicin-resistant cells compared to native cell lines ([8]; MCF7, with epirubicin) | cytotoxicity for epirubicin-resistant cells compared to native cell lines ([3]; MDA-MB-231, with epirubicin) | cross-resistance of epirubicin-resistant cells [9] | cross-resistance of epirubicin-resistant cells [10] | cross-resistance of epirubicin-resistant cells [11] | cross-resistance of epirubicin-resistant cells [12] | cross-resistance of epirubicin-resistant cell lines [13] | cytotoxicity for epirubicin-resistant cells compared to native cell lines ([2]; SKBR3, with epirubicin)
1 | CCC(=O)CCCCC[C@@H]1NC(=O)[C@H]2CCCCN2C(=O)[C@H]([C@@H](C)CC)NC(=O)[C@H](Cc2cn(OC)c3ccccc23)NC1=O | 210 nM | 2210 nM | 110 nM | 70 nM | 170 nM | 230 nM | 250 nM | 110 nM |  |  |  |  |  |  |  |  |  |  |  | 
2 | CN(C)Cc1c(C(=O)NCCOc2ccc(C(=O)NO)cc2)oc2ccccc12 [Abexinostat] |  | 2250 nM | 120 nM |  |  |  | 160 nM | 90 nM | 140 nM | 110 nM | 210 nM | 270 nM |  |  |  |  |  |  |  | 
3 | O=C(/C=C/c1cccc(S(=O)(=O)Nc2ccccc2)c1)NO [Belinostat] |  | 150 nM | 180 nM |  |  |  | 460 nM | 200 nM | 360 nM | 250 nM | 210 nM | 500 nM |  |  |  |  |  |  |  | 
4 | CC(C)(C)OC(=O)Nc1ccc(-c2cc(C(=O)NCCCCCCC(=O)NO)no2)cc1 [CAY10603] | 980 nM | 1030 nM | 820 nM | 610 nM | 440 nM | 1270 nM | 750 nM | 380 nM |  |  |  |  | more cytotoxic |  |  |  |  |  |  | 
5 | O=C(/C=C/c1cccc(C(=O)NO)c1)NO [CBHA] | 2940 nM | 1030 nM | 1750 nM | 1180 nM | 1450 nM | 2390 nM | 2250 nM | 3580 nM |  |  |  |  |  |  |  |  |  |  |  | 
6 | O=C(/C=C/c1ccc(CN(CCO)CCc2c[nH]c3ccccc23)cc1)NO [Dacinostat] |  | 60 nM | 20 nM |  |  |  | 20 nM | 10 nM | 20 nM | 20 nM | 20 nM | 40 nM |  |  |  |  |  |  |  | 
7 | CCN(CC)Cc1ccc2cc(COC(=O)Nc3ccc(C(=O)NO)cc3)ccc2c1 [Givinostat] |  | 2740 nM | 160 nM |  |  |  | 180 nM | 80 nM | 170 nM | 100 nM | 220 nM | 260 nM |  |  |  |  |  |  |  | 
8 | Nc1ccccc1NC(=O)c1ccc(CNc2nccc(-c3cccnc3)n2)cc1 [Mocetinostat] |  | 3690 nM | 430 nM |  |  |  | 430 nM | 410 nM | 350 nM | 320 nM | 1000 nM | 850 nM |  |  |  |  |  |  |  | 
9 | Cc1[nH]c2ccccc2c1CCNCc1ccc(/C=C/C(=O)NO)cc1 [Panobinostat] |  | 70 nM | 10 nM |  |  |  | 20 nM | 10 nM | 10 nM | 10 nM | 20 nM | 20 nM |  |  |  |  |  |  |  | 
10 | CCCCc1nc2cc(/C=C/C(=O)NO)ccc2n1CCN(CC)CC [Pracinostat] |  | 920 nM | 180 nM |  |  |  | 230 nM | 120 nM | 150 nM | 160 nM | 260 nM | 540 nM |  | more cytotoxic |  |  |  |  |  | 
11 | Cn1cc(CNCC2CCN(c3ncc(C(=O)NO)cn3)CC2)c2ccccc21 [Quisinostat] |  | 220 nM | 10 nM |  |  |  | 10 nM | 10 nM | 10 nM | 10 nM | 10 nM | 10 nM |  |  |  |  |  |  |  | 
12 | CCc1c2c(nc3ccc(O)cc13)-c1cc3c(c(=O)n1C2)COC(=O)[C@]3(O)CC [SN-38] |  |  |  |  |  |  |  |  |  |  |  |  |  |  | cross-resistant | tolerated only small increases in SN-38 concentrations | cross-resistant | tolerated only small increases in SN-38 concentrations |  | 
13 | O=C(CCCCCN1C(=O)c2cccc3cccc(c23)C1=O)NO [Scriptaid] |  | 940 nM | 1300 nM |  |  |  | 1230 nM | 720 nM | 1660 nM | 1340 nM | 1250 nM | 3810 nM |  |  |  |  |  |  |  | 
14 | CC(/C=C/C(=O)NO)=C\[C@@H](C)C(=O)c1ccc(N(C)C)cc1 [Trichostatin A] | 1830 nM | 1240 nM | 150 nM |  | 1520 nM | 330 nM | 2280 nM | 500 nM |  |  |  |  |  |  |  |  |  |  |  | 
15 | N.N.O=C([O-])C1(C(=O)[O-])CCC1.[Pt+2] [carboplatin] |  |  |  |  |  |  |  |  |  |  |  |  |  |  |  |  |  |  | None of the cell lines were cross-resistant | 
16 | CC(=O)O[C@@]12CO[C@@H]1C[C@H](O)[C@@]1(C)C(=O)[C@H](O)C3=C(C)[C@@H](OC(=O)[C@H](O)[C@@H](NC(=O)OC(C)(C)C)c4ccccc4)C[C@@](O)([C@@H](OC(=O)c4ccccc4)[C@H]21)C3(C)C [docetaxel] |  |  |  |  |  |  |  |  |  |  |  |  |  |  | not taxane-resistant | not taxane-resistant | cross-resistant | not taxane-resistant |  | 
17 | CC(=O)O[C@H]1C(=O)[C@@]2(C)[C@H]([C@H](OC(=O)c3ccccc3)[C@]3(O)C[C@H](OC(=O)[C@H](O)[C@@H](NC(=O)c4ccccc4)c4ccccc4)C(C)=C1C3(C)C)[C@]1(OC(C)=O)CO[C@@H]1C[C@@H]2O [paclitaxel] |  |  |  |  |  |  |  |  |  |  |  |  |  |  | not taxane-resistant | not taxane-resistant | cross-resistant | not taxane-resistant |  | 
18 | Oxamflatin | 680 nM | 690 nM | 290 nM | 620 nM | 1280 nM | 590 nM | 1200 nM | 250 nM |  |  |  |  |  |  |  |  |  |  |  | more cytotoxic
